In publication PMC5956543, “Antimicrobial and antioxidant activities of triterpenoid and phenolic derivatives from two Cameroonian Melastomataceae plants: Dissotis senegambiensis and Amphiblemma monticola” (BMC Complementary and Alternative Medicine, 2018):
Values after ≈ are worked out from the molar mass of the structure shown.

Experiments:
[1] = system: S. aureus ATCC25923; experiment: Broth microdilution antimicrobial assay (MIC/MMC); assay type: cell-based, Staphylococcus aureus
Method: (§1) The microorganisms used in this study include four bacterial (Staphylococcus aureus ATCC25923, methicillin sensitive S. aureus MSSA1, methicillin resistant S. aureus MRSA3 and methicillin resistant S. aureus MRSA4) and three yeast strains (Candida albicans ATCC10231, Candida tropicalis PK233 and Cryptococcus neoformans H99). These microorganisms were taken from our laboratory collection. The fungal and bacterial strains were grown at 37 °C and maintained on Sabouraud Dextrose Agar (SDA, Conda, Madrid, Spain) and nutrient agar (NA, Conda) slants respectively.
(§2) The inocula of bacteria and yeasts were prepared from overnight cultures as previously described. Absorbance was read spectrophotometrically at 530 nm and 600 nm for yeasts and bacteria respectively. The final concentrations of microbial suspensions were 2.5 × 10^5 cells/mL for yeasts and 10^6 CFU/mL for bacteria.
(§3) The antimicrobial activity was evaluated by determining the minimum inhibitory concentrations (MICs). MICs of extracts and compounds were determined by broth micro dilution. Each test sample was dissolved in 10% v/v aqueous dimethylsulfoxide (DMSO) to give a stock solution. This was serially diluted two-fold in Mueller-Hinton Broth (MHB) for bacteria and Sabouraud Dextrose Broth (SDB) for fungi to obtain a concentration range of 4096 to 0.25 μg/mL. Then, 100 μL of each sample concentration was added to respective wells (96-well micro plate) containing 90 μL of SDB/ MHB and 10 μL of inoculum to give final concentration ranges of 2048 to 4 μg/mL (for extracts) and 256 to 0.125 μg/mL (for compounds). Dilutions of nystatin (Sigma-Aldrich, Steinheim, Germany) and ciprofloxacin (Sigma-Aldrich, Steinheim, Germany) were used as positive controls for yeasts and bacteria respectively. Broth with 10 μL of DMSO was used as negative control. The cultured micro plates were covered; then, the contents of each well were mixed thoroughly using a plate shaker (Flow Laboratory, Germany) and incubated at 37 °C for 24 h (bacteria) and 48 h (yeasts) under shaking. After the incubation period, MICs were assessed visually and were taken as the lowest sample concentration at which there was no growth or virtually no growth. The lowest concentration that yielded no growth after the sub-culturing was considered as the minimum microbicidal concentrations (MMCs). All the tests were performed in triplicate.

[2] = system: S. aureus MRSA3; experiment: Broth microdilution antimicrobial assay (MIC/MMC); assay type: cell-based, Staphylococcus aureus
Method: as §1, §2, §3

[3] = system: S. aureus MRSA4; experiment: Broth microdilution antimicrobial assay (MIC/MMC); assay type: cell-based, Staphylococcus aureus
Method: as §1, §2, §3

[4] = system: S. aureus MSSA1; experiment: Broth microdilution antimicrobial assay (MIC/MMC); assay type: cell-based, Staphylococcus aureus
Method: as §1, §2, §3

[5] = system: C. albicans ATCC10231; experiment: Broth microdilution antimicrobial assay (MIC/MMC); assay type: cell-based, Candida albicans
Method: as §1, §2, §3

[6] = system: C. tropicalis PK233; experiment: Broth microdilution antimicrobial assay (MIC/MMC); assay type: cell-based, Candida tropicalis
Method: as §1, §2, §3

[7] = system: C. neoformans H99; experiment: Broth microdilution antimicrobial assay (MIC/MMC); assay type: cell-based, Cryptococcus neoformans
Method: as §1, §2, §3

[8] = system: yeast strains; experiment: Broth microdilution MIC, range over the yeast strains; assay type: cell-based; settings: range over the three yeast strains
Method: as §1, §2
The antimicrobial activity was evaluated by determining the minimum inhibitory concentrations (MICs). MICs of extracts and compounds were determined by broth micro dilution. Each test sample was dissolved in 10% v/v aqueous dimethylsulfoxide (DMSO) to give a stock solution. […] After the incubation period, MICs were assessed visually and were taken as the lowest sample concentration at which there was no growth or virtually no growth. […]

[9] = system: bacterial and fungal strains; experiment: Broth microdilution MIC, range over all tested strains; assay type: cell-based
Method: as §1, §2, §3

[10] = Staphylococcus aureus, 37 °C, 24 h
[11] = Staphylococcus aureus, 24 h, no growth after sub-culturing

O=c1oc2c(O)c(O)cc3c(=O)oc4c(O)c(O)cc1c4c23 [Compound 10, ellagic acid]
MMC/MIC [1]: 2 | MIC [1, 10]: 8 µg/mL (≈ 26.5 µM) | MBC [1, 11]: 16 µg/mL (≈ 52.9 µM) | activity against methicillin-resistant S. aureus (in words) ([2]; MRSA3): prominent activity | MMC/MIC ([2]; S. aureus MRSA3): 2 | MBC ([2]; Staphylococcus aureus, 24 h, S. aureus MRSA3, no growth after sub-culturing): 64 µg/mL (≈ 212 µM) | MIC ([2]; Staphylococcus aureus, S. aureus MRSA3, 37 °C, 24 h): 32 µg/mL (≈ 106 µM) | activity against methicillin-resistant S. aureus (in words) ([3]; MRSA4): prominent activity | MMC/MIC ([3]; S. aureus MRSA4): 1 | MBC ([3]; Staphylococcus aureus, 24 h, S. aureus MRSA4, no growth after sub-culturing): 32 µg/mL (≈ 106 µM) | MIC ([3]; Staphylococcus aureus, S. aureus MRSA4, 37 °C, 24 h): 32 µg/mL (≈ 106 µM) | MMC/MIC [4]: 1 | MIC [4, 10]: 16 µg/mL (≈ 52.9 µM) | MBC [4, 11]: 16 µg/mL (≈ 52.9 µM) | MMC/MIC [5]: 1 | MIC ([5]; Candida albicans, 37 °C, 48 h, read-out: MIC): 16 µg/mL (≈ 52.9 µM) | MMC ([5]; no growth after sub-culturing): 16 µg/mL | MMC/MIC [6]: 1 | MIC ([6]; Candida tropicalis, 37 °C, 48 h, read-out: MIC): 8 µg/mL (≈ 26.5 µM) | MFC ([6]; Candida tropicalis, 48 h, no growth after sub-culturing): 8 µg/mL (≈ 26.5 µM) | MMC/MIC [7]: 1 | MIC ([7]; Cryptococcus neoformans, 37 °C, 48 h, read-out: MIC): 16 µg/mL (≈ 52.9 µM) | MFC ([7]; Cryptococcus neoformans, 48 h, no growth after sub-culturing): 16 µg/mL (≈ 52.9 µM) | MIC [8]: 8 to 16 µg/mL (≈ 26.5 to 52.9 µM) | antimicrobial activity (in words) ([9]; all the tested bacterial and fungal species): active against all the tested bacterial and fungal species | MIC ([9]; range over all bacterial and fungal strains, read-out: MIC): 8 to 32 µg/mL (≈ 26.5 to 106 µM)
